Experimental data taken from patent US20120135091A1, “METHODS AND COMPOSITIONS FOR ENHANCING LIFESPAN INVOLVING SIRTUIN-MODULATING COMPOUNDS AND CHALCOGENIDES” (priority 2007, published 2012).
Read-outs that look alike come from different tables or passages of the source.

Key:
[1] = system: C57BL/6 mice
Protocol: In one set of experiments, compositions were tested in male C57BL/6 jugular vein catheterized (JVC) mice, 5-6 weeks old (Taconic), by infusing the animals with the liquid sulfide liquid compositions using 1 mL or 5 mL Luer-Lok syringes (Becton Dickison). An IPTT-300 transponder from Bio Medic Data Systems (BMDS) was used to monitor body temperature.
Each mouse was dosed with liquid compositions through the in-dwelling catheter using an infusion pump (Harvard Apparatus). The mouse was infused until the temperature chip implanted in the skin registered a body temperature of 33° C. […] Once the animal's temperature dropped to 33° C. or below, the infusion was stopped and the mouse was transferred into a hypoxic atmosphere (4.0% O2) together with a control mouse.

[2] = system: C. elegans; experiment: Thermotolerance assay (survival at high temperature); format: in vivo
Protocol: (§1) Growing Nematodes in H2S-Containing Atmospheres. Bristol strain N2 (wild-type) and mutant nematode strains were grown at room temperature on nematode growth medium (NGM) plates seeded with live E. coli OP50 food (48). Mutant strains obtained from the C. elegans genetic stock center were as follows: CB130, daf-2(e1370); DR26, daf-16(m26); VC520, isp-1(gk267); MQ130, clk-1(qm30); DA1116, eat-2(ad1116); VC199, sir-2.1(ok434). Plates were maintained in atmospheric chambers sealed with Dow Corning Vacuum Grease (Sigma). […] Gasses were hydrated using gas wash bottles (Fisher), and moved through ⅛ inch outer diameter FEP tubing (Cole Parmer) with connections by snap connectors (Cole Parmer), stainless steel quick connect fittings or compression fittings (Seattle Fluid Systems). […] All compressed gas mixtures used in this study were obtained from Byrne Gas and were certified standard to within 2% of indicated concentration. Flow tubes (Aalborg) were used to distribute the gas mixture to different chambers. Gas flow rate was 100 cc/m to small boxes (100-300 mL) and 800 cc/m to the large boxes (1-3 L) used to culture nematode strains at room temperature. At these flow rates, the gaseous environment of the atmospheric chambers is exchanged every 20-30 minutes. […] Data were collected using Chart software with a Powerlab data acquisition unit (ADInstruments) and analyzed with EXCEL.
Thermotolerance Assay. […] Care was taken to prevent the population from starving. Nematodes were picked from these mixed-stage populations as L4 larvae and allowed to develop for 24-48 h at room temperature; however, treated and control animals were always the same age. […] Groups of 20-30 animals were transferred to NGM plates without food and then placed into an atmospheric chamber perfused with the indicated gas at high temperature in an Echotherm 1N35 incubator (Torrey Pines Scientific, NIST traceable) or a VWR incubator model 2005 (VWR International). A ring of palmitic acid around the edge of the plate helped prevent the worms escaping the surface of the agar. […]

[3] = system: C. elegans; experiment: Lifespan in H2S-containing atmosphere; format: in vivo
Protocol: as §1

[4] = system: C. elegans; experiment: Rate of egg-laying; format: in vivo
Protocol: Animals were picked as L4 from mixed-stage populations and allowed to develop for 20-30 hours in the same conditions at room temperature. Individual worms were then placed onto NGM plates with a 10 μL spot of OP50 food. The number of embryos laid in 3-5 hours was counted to determine the rate of egg-laying. To create an atmosphere with 2% O2, N2 was mixed with 5% O2 balanced with N2. Smart-Trak series 100 mass flow controllers (Sierra Instruments) were used to mix the gas and to split it into 2 atmospheric chambers. […] In each experiment, 10-15 individuals were included in each group. The data shown in Table 2 are from one experiment that is representative of at least three independent assays.

[5] = system: C. elegans; experiment: Brood size measurement; format: in vivo; conditions: moved to H2S, n=5
Excerpt: Brood size measurement. To determine the number of viable progeny produced by nematodes, individual fourth-stage larvae (L4) were transferred to NGM plates with OP50 food at room temperature. Animals were moved daily until they quit laying fertilized eggs. Progeny were counted as L4/young adult.

[6] = system: mice; conditions: mouse, in vivo
Protocol: Experiments were stopped at 60 minutes, and animals still alive were returned to their cage.

[7] = system: C57BL/6 mice; format: in vivo, mouse
[8] = 4.0% O2 after infusion until body temperature 33° C., test ended at 60 minutes
[9] = jugular vein infusion until body temperature of 33° C.

Compound: OCCS [2-Mercapto-ethanol]
- toxicity ([1]; mouse, in vivo): toxic
- reduction of body (subcutaneous) temperature ([1]; mouse, in vivo, sc): reduced body temperature

Compound: SCCOCCS [2-mercaptoethyl ether]
- reduction of body (subcutaneous) temperature ([1]; infusion, primary screen): reduced body temperature
- toxicity ([1]; mouse, in vivo): toxic

Compound: C[S+](C)[O-] [Dimethylsulfoxide]
- effective dose ([1]; too high to be considered for pharmaceutical purposes): 10 % DMSO

Compound: S [H2S, hydrogen sulfide]
- fraction of H2S-treated animals alive when the last untreated control animal had expired (mean) ([2]; 15 experiments, L4 to 3rd day adults, 33 to 37 C (FIG. 11A)): 0.8
- average of H2S-treated animals alive when all untreated animals had died ([2]; 15 independent experiments, high temperature): 77-80%
- survival time at high temperature ([2]; grown in H2S before heat-shock, exposed to 35 C in room air (FIG. 2C)): 7.3 h
- delay in reaching 75% mortality versus control population (maximum lifespan) ([3]; H2S-treated animals): 10 days
- lifespan ([3]; raised in H2S until L4, monitored in room air (FIG. 3C)): 12.8 ± 0.7 days
- average rate of egg-laying ([4]; clk-1(qm30), assayed in 2% O2 + H2S): 2.5 ± 1.0 embryos per hour
- average rate of egg-laying ([4]; clk-1(qm30), assayed in H2S): 3.2 ± 1.1 embryos per hour
- average rate of egg-laying ([4]; unadapted (wild-type grown in room air), assayed in 2% O2 + H2S): 4.5 ± 1.6 embryos per hour
- average rate of egg-laying ([4]; unadapted (wild-type grown in room air), assayed in H2S): 8.3 ± 3.0 embryos per hour
- number of progeny [5]: 227±18
- recovery after survival in 5% O2 [6]: no noticeable motor or behavioral deficits

Compound: CC(=O)N[C@@H](CS)C(=O)O [N-acetyl-L-cysteine]
- reduction of body (subcutaneous) temperature ([1]; infusion, primary screen): did not reduce subcutaneous temperature

Compound: CC(O)=S [Thioacetic acid]
- enhancement of survival in hypoxia ([7]; lethal hypoxia 4% O2): did not enhance survival in hypoxia
- reduction of body (subcutaneous) temperature ([1]; mouse, in vivo, sc): reduced body temperature

Compound: NCCS [cysteamine]
- survival in lethal hypoxia [7, 8]: 45 min
- effective dose ([1]; mouse, in vivo): 7.58 mmol/kg

Compound: CSC [dimethyl sulfide]
- reduction of body (subcutaneous) temperature ([1]; infusion, primary screen): did not reduce subcutaneous temperature

Compound: NCCCNCCSP(=O)(O)O [phosphorothioic acid S-(2-((3-aminopropyl)amino)ethyl)ester]
- enhancement of survival in hypoxia ([7]; mouse, in vivo): did not enhance survival in hypoxia
- reduction of body (subcutaneous) temperature ([1]; mouse, in vivo, sc): reduced body temperature

Compound: N=C(N)[SeH] [selenourea]
- enhancement of survival in hypoxia ([7]; lethal hypoxia 4% O2): did not enhance survival in hypoxia
- reduction of body (subcutaneous) temperature ([1]; mouse, in vivo, sc): reduced body temperature

Compound: CS(=O)[O-].[Na+] [sodium methane sulfinate]
- reduction of body (subcutaneous) temperature ([1]; infusion, primary screen): did not reduce subcutaneous temperature

Compound: [SeH2] [sodium selenide]
- reduction of body (subcutaneous) temperature ([1]; mouse, in vivo, sc): did not reduce subcutaneous temperature

Compound: N#C[S-].[Na+] [sodium thiocyanate]
- effective dose [1, 9]: 4.67 mmol/kg

Compound: C[S-].[Na+] [sodium thiomethoxide]
- survival in lethal hypoxia [7, 8]: 60 min
- effective dose [1, 9]: 4.61 mmol/kg

Compound: OC1CCSCC1 [tetrahydrothiopyran-4-ol]
- survival in lethal hypoxia [7, 8]: 15 min

Compound: O=C(O)CS [thioglycolic acid]
- reduction of body (subcutaneous) temperature ([1]; infusion, primary screen): reduced body temperature
- toxicity ([1]; mouse, in vivo): toxic

Compound: sodium sulfide
- survival in lethal hypoxia ([7]; mouse, in vivo): 60 min
- effective dose ([1]; mouse, in vivo): 0.79 mmol/kg
